Usually melting point stands for the temperature of the solid-liquid transition. In general, IC50 refers to the midpoint of a concentration-inhibition curve. Higher therefore signals lower potency. For orientation: ED50 means the dose that gives a 50% effect, or the effect in half of the subjects. A lower ED50 goes with greater potency.

The results in this text go back to US20140148412A1, “NOVEL 17B-HETEROARYL-S[…] AS MODULATORS OF GABAA RECEPTORS” (THE REGENTS OF THE UNIVERSITY OF CLAIFORNIA, priority 2011, published 2014).

In data set [1] the target is GABAA receptors (rat cerebral cortex P2 homogenate). In words: [35S]TBPS binding assay. To be noted: inhibition of [35S]TBPS binding. As to the method: The cerebral cortex from male Sprague-Dawley rats (weighing 160-200 g) was removed immediately after decapitation and dissected over ice. A P2 homogenate was prepared for binding assay as previously described (Gee, 1987a). The tissue was homogenized in 0.32 M sucrose (J. T. Baker Chemical Co., Phillipsburg, N.J.) with a Teflon-coated pestle, followed by centrifugation at 1,000×g for 10 min. The supernatant was collected and centrifuged at 9,000×g for 20 min. The resultant P2 pellet was resuspended in ice-cold 50 mM sodium potassium phosphate buffer (pH 7.4) containing 200 mM NaCl and used immediately in binding assays. A 2 nM concentration of [^35S]TBPS (86 Ci/mmol; New England Nuclear, Boston, Mass.) was incubated with 100 μL of tissue homogenate (10% w/v) in the presence or absence of 5 μM GABA (Sigma Chem. Co., St. Louis, Mo.) and 5 μL aliquots of test drug dissolved in dimethyl sulfoxide (Sigma Chem. Co.) (≦10 μL of solvent used in all assays). At the concentration (≦1%) used, dimethyl sulfoxide had no effect on specific [^35S]TBPS binding. […] Filter-bound radioactivity was quantified by liquid scintillation spectrophotometry. The data were evaluated by nonlinear regression (GraphPad, Inc., San Diego, Calif.) to obtain IC50 (concentration at which half-maximal inhibition of radioligand occurs) and Imax (maximum percent inhibition) values. […]

The test system of data set [2] is pentylenetetrazole-induced seizures. In words: Anticonvulsant assay, protection from pentylenetetrazole-induced seizures. The class given is in vivo. As to conditions: oral dosing in 20% 2-hydroxypropyl-β-cyclodextrin; dose protecting half the animals from seizures. As to the method:
The ability of compounds to protect against pentylenetetrazole-induced seizures was carried out as described by Hogenkamp, et al. J. Med. Chem. 2007, 50, 3369. The dose that protected half the animals from seizures was determined as the ED50.

The subject of data set [3] is mice. In words: Mouse rotarod (RR). The data set is classed as in vivo. To be noted: dosed in 20% 2-hydroxypropyl-β-cyclodextrin. As to the method:
Naïve mice were trained on a RR (Columbus Instruments, Columbus, Ohio) in 4 sessions (6-15 rpm) over 2 days to successfully complete the 2-min trial prior to final testing (6 rpm). On day 3, the mice were administered compound and tested over a period of 360 min at various intervals. The percentage of animals remaining on the RR throughout each 2-min trial was recorded. The results that coincided with the time of peak effect were analyzed by the method of Litchfield and Wilcoxon (Litchfield and Wilcoxon, J. Pharmacol. Exp. Ther., 1949, 96, 99) to determine the AD50 (ataxic half-maximal dose where half of the mice fail the RR assay). Compounds that have activity in the rotarod assay can indicate CNS depressive activity and sedative activity.

For data set [4], the system named is mice. The data set can be described thus: Mouse elevated plus maze (EPM). As to conditions: dosed in 20% 2-hydroxypropyl-β-cyclodextrin. The data set is classed as in vivo. As to the method: Mouse Elevated Plus Maze (EPM)
Mice were group housed and handled daily for 3 days prior to testing in the EPM (Coulbourn Instruments). Testing was conducted in a dimly lit room, with two 60 W bulbs pointed at the ceiling near the open arms (4 ft. above the maze). The maze was cleaned between each run. Automated counting of time spent in the open arms of the maze was achieved by using Med Associates (St. Albans, Vt.) MedPC-IV program. Data were analyzed with GraphPad Prism 4.0 for statistical significance by one-way ANOVA with Dunnett's multiple comparison post-hoc test. Compounds that increase the amount of time the animals spend in the open arms have activity as anxiolytics.

The target in data set [5] is T1, human α1β1γ2 GABAA receptors (Homo sapiens, UniProt P14867+P18505).
T1 construct: expressed in transfected cells
The data set can be described thus: Oocyte electrophysiology, modulation of EC10 GABA response. The class given is cell-based. As to conditions: oocytes expressing human α1β1γ2 GABAA receptors; % modulation above EC10 GABA control. As to the method:
Preparation, micro-injection and maintenance of oocytes was as previously described (Ng et al., Proc. Natl. Acad. Sci., 2007, 104, 8059). Individual oocytes were injected with 0.005-50 ng of each subunit mRNA as follows (ratio of subunits in parentheses): GABAA receptor subunit combinations (α1,2, or 3, β1,2, or 3, γ2L or δ): (5:1:1). Stage IV-V oocytes were plucked from ovary membranes, defolliculized with collagenase Type IA (Worthington's) for 45 min and rinsed 10 times with Ringer's salt solution. cRNA was injected at 50 nL. Oocytes were tested 3-28 days after injection (n=3-7 per compound), in Ringer's salt solution by linear drug application method using electrodes with […] tip resistance. Changes in membrane current were passed through a pre-amp, then through a T200 patch amplifier (Axon Instruments), with a bandpass filter 2 kHz. pClamp software was used to monitor, record, and analyze data. All compounds were tested with a 30 second pretreatment prior to co-application with EC10 (concentration of GABA that evokes 10% of the maximum response) GABA for the control response. Responses in presence of test compound were calculated as % modulation above control. Concentration-response curves were fit to non-linear regression analysis on Prism 4.0 (GraphPad, San Diego, Calif.) for % maximal stimulation and EC50. […]

T1 sequence (P14867 28-456): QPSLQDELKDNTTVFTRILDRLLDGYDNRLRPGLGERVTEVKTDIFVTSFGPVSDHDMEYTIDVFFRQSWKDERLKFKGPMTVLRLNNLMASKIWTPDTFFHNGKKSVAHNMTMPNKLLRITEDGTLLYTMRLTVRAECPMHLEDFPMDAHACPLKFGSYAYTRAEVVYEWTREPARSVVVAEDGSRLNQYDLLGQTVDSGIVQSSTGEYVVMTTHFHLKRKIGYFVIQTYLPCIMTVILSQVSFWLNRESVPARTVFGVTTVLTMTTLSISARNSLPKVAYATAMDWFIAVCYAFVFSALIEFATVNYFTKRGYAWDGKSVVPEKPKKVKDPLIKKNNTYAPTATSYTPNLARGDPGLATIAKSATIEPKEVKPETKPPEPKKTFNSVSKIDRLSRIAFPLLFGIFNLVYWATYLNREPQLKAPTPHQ
T1 sequence (P18505 26-474): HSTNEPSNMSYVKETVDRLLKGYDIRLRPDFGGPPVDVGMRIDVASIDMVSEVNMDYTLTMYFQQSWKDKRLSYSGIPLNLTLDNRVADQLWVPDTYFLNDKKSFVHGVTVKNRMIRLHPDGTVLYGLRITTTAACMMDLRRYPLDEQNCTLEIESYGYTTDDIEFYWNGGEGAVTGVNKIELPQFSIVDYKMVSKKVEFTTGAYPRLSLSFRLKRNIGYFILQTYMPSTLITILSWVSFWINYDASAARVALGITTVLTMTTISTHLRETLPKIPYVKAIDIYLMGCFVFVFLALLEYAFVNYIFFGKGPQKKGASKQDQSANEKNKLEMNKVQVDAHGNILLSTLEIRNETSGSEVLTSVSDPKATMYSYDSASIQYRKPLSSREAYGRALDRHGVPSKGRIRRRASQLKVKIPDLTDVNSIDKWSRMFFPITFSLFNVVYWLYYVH
T1 sequence (P18507 40-475 partner): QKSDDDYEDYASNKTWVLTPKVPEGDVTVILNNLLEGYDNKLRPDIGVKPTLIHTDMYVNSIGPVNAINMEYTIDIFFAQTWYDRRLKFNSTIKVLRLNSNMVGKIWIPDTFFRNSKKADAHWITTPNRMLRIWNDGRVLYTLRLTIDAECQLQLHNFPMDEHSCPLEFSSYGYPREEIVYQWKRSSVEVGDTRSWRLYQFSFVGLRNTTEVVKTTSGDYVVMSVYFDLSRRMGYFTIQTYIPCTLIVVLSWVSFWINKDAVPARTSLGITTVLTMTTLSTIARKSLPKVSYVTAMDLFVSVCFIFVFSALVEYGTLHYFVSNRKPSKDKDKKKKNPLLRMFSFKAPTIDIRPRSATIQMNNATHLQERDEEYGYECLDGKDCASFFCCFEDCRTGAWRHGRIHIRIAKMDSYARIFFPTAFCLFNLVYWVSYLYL

In turn, `C[C@@]1(O)CC[C@@]2(C)[C@@H](CC[C@@H]3[C@@H]2CC[C@]2(C)[C@@H](c4cc(CO)no4)CC[C@@H]32)C1` displayed a melting point of 192 to 193 °C.

Consider `C[C@@]1(O)CC[C@@]2(C)[C@@H](CC[C@@H]3[C@@H]2CC[C@]2(C)[C@@H](c4cn5ccccc5n4)CC[C@@H]32)C1` [2-[3α-Hydroxy-3β-methyl-5α-androstan-17β-yl]-imidazo[1,2-a]pyridine], for which, in data set [1], the IC50 is 1 µM and the “Imax (maximum percent inhibition)” value is listed as 100%.

In turn, `C[C@@]1(O)CC[C@@]2(C)[C@@H](CC[C@@H]3[C@@H]2CC[C@]2(C)[C@@H](c4cc(CO)on4)CC[C@@H]32)C1` [3-[3α-hydroxy-3β-methyl-5α-androstan-17β-yl]-5-(hydroxymethyl)isoxazole] returned a melting point of 198.5 to 200 °C. In data set [2], this compound yielded an ED50 of 4 mg/kg. For the same compound, in data set [3], the “oral AD50 (ataxic half-maximal dose)” value came to 43 mg/kg. Further, the “minimum effective oral dose” value in data set [4] is reported as 1 mg/kg.

Turning to `C[C@@]1(O)CC[C@@]2(C)[C@@H](CC[C@@H]3[C@@H]2CC[C@]2(C)[C@@H](c4ccno4)CC[C@@H]32)C1` [5-[3α-hydroxy-3β-methyl-5α-androstan-17β-yl]-isoxazole], the maximum modulation in data set [5] turned out to be 400%.
